Data set [1] has as its system J7-T3-1.6. Briefly: cells. Type of data set: cell-based, mouse. As to conditions: for IC50: Mus musculus, J7-T3-1.6, 72 h, mean ± SE, read-out: IC50 (drug concentration that inhibits cell division by 50%); for Fold resistance (ratio of IC50 J7-T3-1.6 to J774.2): after 72 h. On the procedure:
(§1) The drug-sensitive mouse macrophage-like cell line, J774.2, and its Taxol-resistant cell line, J7-T3-1.6, were maintained as previously described. […] Drug-sensitive and vinblastine-resistant human ovarian carcinoma cell lines, SKOV3 and SKVLB, were obtained from Dr. V. Ling, and were maintained as previously described. Both J7-T3-1.6 and SKVLB cells overexpress P-glycoprotein. SKVLB cells were grown in the presence of 1 μM vinblastine. The Taxol-resistant human non-small-cell lung carcinoma cell line, A549-T12, was derived from the drug-sensitive A549 cell line; both cell lines were maintained as previously described.
(§2) For the A549 cell lines, cells were seeded at a density of 1×10^4 cells/mL (A549) or 3×10^4 cells/mL (A549-T12), in triplicate, 6-well plates, and allowed to attach for 24 h. […] The SKOV3 and SKVLB cell lines were assayed in a similar manner. Cells were seeded in triplicate, at a density of 6×10^3 cells/mL (SKOV3) or 12×10^3 cells/mL (SKVLB), in 6-well plates, and incubated with a drug for 6 days. […] J774.2 and J7-T3-1.6 cells were plated at a density of 2×10^4 cells/well, in 96-well plates, and allowed to attach overnight. Serial dilutions of each drug were performed, and the cells were incubated for 72 h. The IC50 was determined using the CellTiter 96™ AQueous nonradioactive cell proliferation assay (Promega, Madison, Wis.), which correlates with the number of live cells. Different methods for determining IC50 values were used, depending on the most accurate method for each particular set of cell lines.

For data set [2], the system named is J774.2. In words: cells. Type of data set: cell-based, mouse. As to conditions: Mus musculus; J774.2, 72 h, mean ± SE; read-out: IC50 (drug concentration that inhibits cell division by 50%). Here is the method:
as §1, §2

Data set [3] relates to microtubules. Briefly: In vitro microtubule polymerization assay. Type of data set: biochemical. As to conditions: in the absence of GTP.
Data set [4] deals with A549-T12 cells. Type of data set: cell-based, human. As to conditions: 48 h; for Microtubule cytoskeleton / ability to substitute for Taxol: concentrations as in FIG. 4. Here is the method:
A549-T12 cells were grown on cover slips and treated with the different compounds for 48 h. Cells were then permeabilized, fixed, and incubated with an α-tubulin antibody, as described below.
A549-T12 cells, which were grown to subconfluency on glass cover slips in the absence of drug or in the presence of different drugs at varying concentrations (FIG. 4), were prepared for immunofluorescence microscopy as previously described, with the following modifications: (a) nonspecific binding was blocked using 10% normal goat serum in PBS for 30 min at 37° C.; (b) cells were incubated with a monoclonal antibody to α-tubulin (Sigma; 1:100 dilution; 5% normal goat serum in PBS), followed by a Cy3-conjugated anti-mouse IgG secondary antibody (Amersham, Arlington Heights, Ill.; 1:1000 dilution); and (c) slides were analyzed using the Zeiss Axioskop microscope (rhodamine filter) at 63× magnification.

The test system of data set [5] is A549. In words: cells. Type of data set: cell-based, human. As to conditions: A549, 72 h, mean ± SE; for IC50: Homo sapiens, read-out: IC50 (drug concentration that inhibits cell division by 50%). Here is the method:
as §1, §2

Data set [6] deals with A549-T12. Briefly: cells. Type of data set: cell-based, human. The following applies: for IC50: Homo sapiens, A549-T12, 72 h, cells maintained in 2 nM Taxol, mean ± SE, read-out: IC50 (drug concentration that inhibits cell division by 50%); for Fold resistance (ratio of IC50 A549-T12 to A549): 72 h. On the procedure: as §1, §2
The subject of data set [7] is SKOV3. Briefly: cells. Type of data set: cell-based, human. As to conditions: SKOV3, 6 days, mean ± SE; for IC50: Homo sapiens, SK-OV-3, 144 h, read-out: IC50 (drug concentration that inhibits cell division by 50%). Here is the method:
as §1, §2

Data set [8] concerns SKVLB. Briefly: cells. Type of data set: cell-based, human. As to conditions: for IC50: Homo sapiens, Ovarian carcinoma cell, 144 h, SKVLB, 6 days, mean ± SE, read-out: IC50 (drug concentration that inhibits cell division by 50%); for Fold resistance (ratio of IC50, SKVLB and SKOV3): after 6 days. Here is the method:
as §1, §2

Data set [9] concerns A549-T12 cells. Type of data set: cell-based, human. As to conditions: for Reversal of the G2-M-phase block induced by Taxol removal: 48 h without Taxol, then 48 h with drug, discodermolide 0.001-24.0 nM, data not shown. Here is the method:
Cells were incubated with the different agents for 48 h, fixed, stained with propidium iodide, and analyzed by flow cytometry, as described below.
For the drug substitution experiments, A549-T12 cells were seeded at a density of 3×10^4 cells/mL in 75-cm^2 flasks, and treated with various drugs at the indicated concentrations (FIG. 5). After 48 h, both adherent and nonadherent cells were harvested, fixed in 70% ethanol for at least 20 min, permeabilized with 0.1% Triton X-100 in PBS for 3 min, and stained for 30 min at 37° C. with 10 μg/mL of propidium iodide (Sigma) in a PBS solution containing 1 μg/mL of RNase A (Boehringer Mannheim, Indianapolis, Ind.). Cell-cycle analysis was performed using the Becton Dickinson FACScan and the CellQuest program. […] The cells then were prepared as described above.

Data set [10] deals with A549 cells. Briefly: Methylene blue growth assay. Type of data set: cell-based, human. The following applies: 8 to 11 days. On the procedure: (§3) FIG. 2 illustrates that A549-T12 cells require Taxol for normal growth. A549 and A549-T12 cells were grown in the absence or presence of various concentrations of Taxol for 8 to 11 days. The cells were then stained with methylene blue, as described below.
(§4) Cells were seeded in 24-well plates at a density of 400 cells/well (A549) or 500 cells/well (A549-T12), and treated with different concentrations of Taxol. Following 8 to 11 days of growth, the medium was removed, and cells were stained with 0.5% methylene blue (Sigma) in 50% ethanol for 20 min, then rinsed with distilled water (FIG. 2).

Data set [11] deals with A549-T12 cells. In words: Methylene blue growth assay. Type of data set: cell-based, human. The following applies: 8 to 11 days. On the procedure: as §3, §4
The subject of data set [12] is P-glycoprotein. Briefly: Steady-state accumulation of [3H]Taxol. Type of data set: cell-based. As to conditions: Taxol-resistant murine cell line; data not shown.
The test system of data set [13] is A549-T12 cells. In words: Drug combination assay (colorimetric proliferation assay), Taxol titrated with test drug. Type of data set: cell-based, human. The following applies: 72 h. On the procedure: For the drug combination assay, the cells were analyzed after 72 h using a cell proliferation assay, as described below. A: cytotoxicity curves of A549-T12 cells in the absence of Taxol or in the presence of Taxol (in various concentrations), in combination with a range of discodermolide concentrations; B-D: cytotoxicity curves of A549-T12 cells in the absence or presence of 2 nM Taxol, in combination with eleutherobin or the epothilones. —⬭—: no Taxol; ---⬬----: 2 nM Taxol.
For the drug combination assay, A549-T12 cells were seeded in triplicate, at a density of 4×10^4 cells/mL, in 96-well plates, in the absence of Taxol or in the presence of various concentrations of Taxol, in combination with serial dilutions of each test drug. After a 72-h incubation, the plates were assayed using the colorimetric proliferation assay. In order to sustain the growth of A549-T12 cells in the absence of Taxol, cells were seeded at the higher densities described above.

For data set [14] the following is noted: literature [13], [16]; discodermolide value predicted; cited from earlier work.
The mark [15] stands for this setting: 48 h, 2 nM Taxol, discodermolide 2 or 6 nM, other drugs as in FIG. 5.

Where two headings read alike, the source gives them in different places.

As to `CC(=O)O[C@H]1C(=O)[C@@]2(C)[C@H]([C@H](OC(=O)c3ccccc3)[C@]3(O)C[C@H](OC(=O)[C@H](O)[C@@H](NC(=O)c4ccccc4)c4ccccc4)C(C)=C1C3(C)C)[C@]1(OC(C)=O)CO[C@@H]1C[C@@H]2O` [Taxol, paclitaxel], the IC50 is 18 µM in data set [1]; 67 ± 7 nM in data set [2]; 2 ± 0.14 nM in [5]; 18.7 ± 0.9 nM in [6]; 2 ± 0.1 nM in data set [7]; 13.3 µM in [8]. Also, in [1], the “Fold resistance (ratio of IC50 J7-T3-1.6 to J774.2)” value came to 268.7 fold. The Assembly of microtubules result in [3] is recorded as “enhanced the assembly of stable microtubules”. In addition, the “Microtubule cytoskeleton / ability to substitute for Taxol” value in [4] is listed as “normal microtubule cytoskeleton”. In addition, the “IC50 (drug concentration that inhibits cell division by 50%)” value in [7] is recorded as “decreased but similar responses”. For the same molecule, in [8], the “Fold resistance (ratio of IC50, SKVLB and SKOV3)” value was 6,666.5 fold. In addition, the Cell-cycle profile entry in data set [9] (setting [15]) is on record as “normal cell-cycle profile”. In data set [9], the “Reversal of the G2-M-phase block induced by Taxol removal” value was “return of a normal cell-cycle profile”. The Cell growth entry is “cytotoxic” in data set [10] (6 nM Taxol), “unaffected” in data set [10] (subnanomolar concentrations of Taxol) and “grew normally” in [11] (6 nM Taxol). Moreover, the “Taxol level required by the cell line for normal growth” value in data set [11] was in the range of 2 to 6 nM.
For the molecule `C=C/C=C\[C@H](C)[C@H](OC(N)=O)[C@@H](C)[C@H](O)[C@@H](C)C/C(C)=C\[C@H](C)[C@@H](O)[C@@H](C)/C=C\[C@@H](O)C[C@@H]1OC(=O)[C@H](C)[C@@H](O)[C@H]1C` [Disco, discodermolide], the “Substrate for P-glycoprotein” value in data set [12] was “not substrates for P-glycoprotein”. Further, the IC50 in data set [1] amounted to 1.05 µM; in [2], 36 ± 5.5 nM; in data set [5], 8.1 ± 0.14 nM; in [6], 6.5 ± 2.4 nM; in [7] it was 9.7 ± 0.3 nM; in data set [8], 0.575 ± 0.233 µM. The “Fold resistance (ratio of IC50 J7-T3-1.6 to J774.2)” value is 29.2 fold in data set [1] and “low resistance” in data set [1] (listed as discodermolide). In data set [3], the Assembly of microtubules result is “enhanced the assembly of stable microtubules”. Moreover, the “Taxol concentration at which the potency of discodermolide was maximal” value in data set [13] (Taxol titrated with a range of discodermolide concentrations) is listed as 2 nM. In addition, the “Loss of sensitivity of A549-T12 cells to the drug in the absence of 2 nM Taxol” value in data set [13] (absence vs presence of 2 nM Taxol) was 20 fold. Moreover, in data set [4], the “Concentration at which microtubules became arranged in bundle-like formations at the periphery of the cell” value is reported as at least 12 nM. Moreover, the “Microtubule cytoskeleton / ability to substitute for Taxol” value in data set [4] is given as “Neither discodermolide nor vinblastine was able to substitute for Taxol”. In addition, the “IC50 (drug concentration that inhibits cell division by 50%)” value in data set [5] is “comparable activities”; in data set [7], “decreased but similar responses”. Besides, the figures for the “Fold resistance (ratio of IC50 A549-T12 to A549)” value in data set [6] and in data set [6] (listed as discodermolide) were 0.8 fold and “no cross-resistance”, respectively. In addition, the figures for the “Fold resistance (ratio of IC50, SKVLB and SKOV3)” value in data set [8] and in data set [8] (listed as discodermolide) were 59.3 fold and “low-level cross-resistance”, respectively. For the same molecule, the Cell-cycle profile result was “did not prevent the development of a G2-M-phase block” in data set [9] (setting [15]), “G2-M-phase block” in data set [9] (discodermolide 0.001-1.0 nM) and “substantial increase in the hypodiploid population” in data set [9] (discodermolide 12-24 nM). Besides, the “Reversal of the G2-M-phase block induced by Taxol removal” value in [9] is reported as “irreversible”. Also, the “Solubility relative to Taxol” value in [14] is recorded as 100 times more soluble than Taxol.

The values above are taken from patent US6541509B2 (priority 2000, dated 2003).
